Measurements taken from patent publication US20100152136A1 (priority 2006, published 2010).

Tested on: newly diagnosed multiple myeloma patients
Assay: Total Therapy 2 (TT2) clinical trial, multivariate Cox regression of overall and event-free survival
Type: in vivo, human
Procedure: Purified plasma cells (PCs) were obtained from newly diagnosed multiple myeloma patients who were treated on NIH-sponsored clinical trials UARK 98-026 (Total Therapy 2, TT2) (n=351) and UARK 03-033 (Total Therapy 3, TT3) (n=214). Both protocols utilized induction regimens, followed by melphalan-based tandem autotransplants, consolidation chemotherapy and maintenance treatment.
The Kaplan-Meier method was to estimate OS. OS was defined as the time from the date of registration until death from any cause; survivors were censored at the time of last contact. Significance analysis of microarray (SAM) was used to determine statistically significant expression changes of genes in high- and low-TP53-expressing MM plasma cells. Univariate and multivariate analyses of prognostic factors were performed with the Cox regression.
The details of TT2 and TT3 protocols and their overall results have been reported previously; however, results related to 177 additional patients treated in a TT3 successor protocol to validate bortezomib pharmaco-genomic data have not been reported. The median follow-up times for TT2 and TT3 are 7.2 and 3.9 years, respectively. Both protocols and their revisions had been approved by the Institutional Review Board, and patients had signed a written informed consent in keeping with institutional and federal policies.
The Kaplan-Meier method was used to estimate overall and event-free survival with group comparisons made using the log-rank test. Overall survival and event-free survival were measured from the date of registration until death from any cause and disease relapse or death from any cause, respectively; survivors were censored at the time of last contact. Univariate and multivariate analyses of prognostic factors were carried out using Cox regression models.

[1] = TT2, randomization to thalidomide, 170/341 patients, multivariate analysis, median follow-up 7.2 years (Table 5)

O=C1CCC(N2C(=O)c3ccccc3C2=O)C(=O)N1 (stereo not shown) [Thalidomide]
effect of randomization on event-free and overall survival (TT2, in words): beneficial effect
Event-Free Survival HR (95% CI) (TT2, randomization to thalidomide, 166/334 patients, multivariate analysis (Table 2)): 0.75 (0.60, 0.93)
Event-free survival HR [1]: 0.61
Overall Survival HR [1]: 0.70
